The subject of the test is bladder pressure and salivation. The experiment in a line: In vivo experiments using anesthetized rabbit (carbachol challenge). Particulars: carbachol 1.5 ug/kg intra-arterial, from ID50 values, expressed as fold of selectivity of oxybutynin.

For `CN1CCC(N(C)CC(O)C(O)(c2ccccc2)C2CCCC2)CC1` (centres unmarked) [Compound No. 24, 1-Cyclopentyl-3-[methyl-(1-methyl-piperidin-4-yl)-amino]-1-phenyl-propane-1,2-diol], the “Selectivity for bladder pressure inhibition vs. salivation” value was “about 2”.

With `CC1=NCCN1CC(=O)[C@](O)(c1ccccc1)C1CCCC1` [Compound No. 85, (2R)-1-Cyclopentyl-1-hydroxy-3-(2-methyl-4,5-dihydro-imidazol-1-yl)-1-phenyl-propan-2-one], the “Selectivity for bladder pressure inhibition vs. salivation” value was “about 2”.
